Measurements: US20020102533A1, “Hepatitis C protease exosite for inhibit or design” (priority 2000, published 2002)
pKi: −log10 of the molar value. Where a SMILES comes first, the peptide text is derived from it. [ ]: non-standard residue; d: D form. Dip = N[C@H](C(=O)O)C(c1ccccc1)c1ccccc1; Cha = N[C@@H](CC1CCCCC1)C(=O)O

Experiments:
Format in all cases: biochemical
[1] = biological target: T1, HCV NS3 protease, genotype 1a (Hepatitis C virus genotype 1a, UniProt P26664); settings: P6-P3′ amide substrate
T1 construct: NS3 protease catalytic domain (amino acids 1 to 192); MGAQH expression leader (5 aa), or alternatively the 15 aa His tag […]; made in house; host or cells: E. coli BL21 (DE3)
Description: (§1) Endpoint HPLC based HCV protease assay: HCV protease (5 nM) was incubated in 50 mM Tris pH 7.5, 0.1% maltoside, 5 mM DTT and appropriate amounts of glycerol, NS4A peptide, and substrate. Routine assays were 100 μl in volume containing 15% or 50% glycerol, 5.0 μM NS4A peptide and 5.0 μM substrate. Reactions were run at room temperature (˜22° C.) and quenched by the addition of 4 μl of 10% TFA before 10% of the substrate was consumed. Incubation times were 20 minutes for the ester substrate (Peptide Substrate A) and 80 minutes for the P6-P7′ amide substrate (Peptide Substrate B). […] Incubation times were 90 min. Samples, 50 μl, were injected onto an Hewlett Packard 1090 Liquid Chromatograph containing a Dynamax-60A C18 column. The column was eluted with a linear gradient from 10% acetonitrile to 45% acetonitrile in water. All solvents contained 0.1% TFA. A flow rate of 1 ml/min was used. […] The product peaks were detected by fluorescence excitation at 350 nm and emission at 500 nm.
Comparison of the effects of Q9692 on the hydrolysis of a P6-P3′ ester substrate (FIG. 2A) and a P6-P7′ substrate (FIG. 2B) and P6-P3′ amide substrate (FIG. 2C) were determined. […] Hydrolysis products were quantitated by measuring fluorescent peak areas following HPLC and detection by excitation at 350 nm and measuring emission at 500 nm. […]

[2] = biological target: T1, HCV NS3 protease, genotype 1a
Description: as §1
Footnote a for Table 1 references the assay condiditions: 1) Substrate A=P6-P3′, HCV protease (4.0 nM) was incubated with various concentrations of truncated analogs of Q9692 in 50 mM Tris buffer, pH 7.0, 15% glycerol, 0.1% maltoside, 5 mM DTT and 10 μM NS4A peptide in a 96-well microtiter plate at room temperature. After 15 minutes catalysis was initiated by the addition of Ac-D-E-D(EDANS)-E-E-Abuψ[COO]-A-S-K(DABCYL)—NH2 (final concentration 5.0 μM in a total reaction volume of 200 μl). Enzymatic activity was monitored by measuring the increase in fluorescence with time on a Perkin Elmer LS50B luminescence spectrometer (excitation 350 nm, emission 500 nm, both slits 10 nm). […] Assays were 100 μl in volume, reactions were run at room temperature (˜22 C) for 80 minutes (<10% of the substrate was consumed). The addition of 4 μl of 10% TFA quenched the reactions. Quantitation of hydrolysis products was determined by measuring fluorescent peak areas following HPLC. Products were detected by excitation at 350 nm and measuring emission at 500 nm. Aliquots (50 μl) of quenched enzymatic reactions were injected on an Hewlett Packard 1090 HPLC equipped with a ¼ inch Dynamex 60A C18 column. A linear gradient from 10% acetonitrile:H2O to 45% acetonitrile:H2O was run over a period of 15 min at a flow rate of 1.0 ml/min. All solvents contained 0.1% TFA.
Comparison of the effects of Q9692 on the hydrolysis of a P6-P3′ ester substrate (FIG. 2A) and a P6-P7′ substrate (FIG. 2B) and P6-P3′ amide substrate (FIG. 2C) were determined. For substrates A and B1 Concentrations of Q9692 are 0 (circles), 1 μM (squares), 2 μM (diamonds) and 4 μM (triangles). Assay conditions: HCV protease (5 nM) was incubated in 50 mM Tris buffer at pH 7.0, 15% glycerol, 0.1% maltoside, 5 mM DTT, 10 μM NS4A peptide, and specified concentration of substrate. Assays were 100 μl in volume and reactions were run at room temperature (22 C) and quenched by the addition of 4 μl of 10% TFA before 10% of the substrate was consumed. Incubation times were 20 minutes for the ester substrate and 80 minutes for the amide substrate. Hydrolysis products were quantitated by measuring fluorescent peak areas following HPLC and detection by excitation at 350 nm and measuring emission at 500 nm. Aliquots (50 μl) of quenched enzymatic reactions were injected on an Hewlett Packard 1090 HPLC equipped with a ¼ inch Dynamex 60A C18 column.

[3] = biological target: T2, HCV protease 2A (Hepatitis C virus genotype 2a, UniProt P26660); assay: HCV protease type 2a, 9-mer substrate
T2 construct: the catalytic domains of types 1b, 1J and 2a have also been examined
Source text: (§2) It is understood that other forms of HCV protease may be used in an assay for the determination of inhibitors. The present invention has disclosed the 1A form of HCV protease, however, the catalytic domains of types 1b, 1J and 2a have also been examined, as well as, the full-length version of form 1b. Evidence for the exosite exists in each case. Activation by Q9692 follows the trend of activation by NS4a. Forms of the enzyme that are more sensitive to NS4a display greater stimulation by Q9692 than forms that are less sensitive. In rank order sensitivity is 1J, 1B, 1A, and 2A. The catalytic activity of 2A toward the 9-mer substrate is enhanced by only 1.5-fold at 4 μM Q9692 and becomes inhibited by Q9692 at concentrations greater than 20 μM. […] Use of alternative forms of the HCV protease is relevent to development of an inexpensive and easy continous assay.

[4] = biological target: T2, HCV protease 2A; assay: HCV protease type 2a, 13-mer substrate
Source text: as §2

CC(=O)N[C@@H](CC(=O)O)C(=O)N[C@@H](CCC(=O)O)C(=O)N[C@H](C(=O)N[C@@H](CCC(=O)O)C(=O)N[C@@H](CC1CCCCC1)C(=O)N[C@@H](CS)C(=O)O)C(c1ccccc1)c1ccccc1 [Q9692, Ac-Asp-Glu-Dpa-Glu-Cha-Cys—OH] (Ac-DE[Dip]E[Cha]C-OH)
inhibition pattern [1]: mixed inhibition | Dixon plots of 1/V versus Q9717 concentration ([2]; 5 μM substrate spanning P6-P7′): intersecting lines | mode of action ([2]; P6-P7′ substrate, double reciprocal plots): competitive inhibitor | (S = P6-P7′) Inhibition (+) / Activation (−) ([2]; substrate B): + | concentrations at which enzyme becomes inhibited [3]: greater than 20 μM | enhancement of catalytic activity ([3]; 4 μM Q9692): 1.5 fold | pKi [4]: ~6.60
